Values after ≈ are worked out from the molar mass of the structure shown.
Legend:
[1] = Solubility (physico-chemical properties)
[2] = system: Escherichia coli NIHJ JC-2; experiment: MIC by agar dilution method, Mueller-Hinton agar; type: cell-based
Protocol: (§1) The minimal inhibitory concentrations (MIC) of mureidomycins E and F against various Gram-positive and Gram-negative bacteria were determined by the agar dilution method, using a Mueller-Hinton agar medium (produced by Difco).

[3] = system: Proteus mirabilis SANK 70461; experiment: MIC by agar dilution method, Mueller-Hinton agar; type: cell-based
Protocol: as §1

[4] = system: Pseudomonas aeruginosa ATCC 13388; experiment: MIC by agar dilution method, Mueller-Hinton agar; type: cell-based
Protocol: as §1

[5] = system: Pseudomonas aeruginosa NCTC 10490; experiment: MIC by agar dilution method, Mueller-Hinton agar; type: cell-based
Protocol: as §1

[6] = system: Pseudomonas aeruginosa NRRL B1000; experiment: MIC by agar dilution method, Mueller-Hinton agar; type: cell-based
Protocol: as §1

[7] = system: Pseudomonas aeruginosa SANK 70579; experiment: MIC by agar dilution method, Mueller-Hinton agar; type: cell-based
Protocol: as §1

[8] = system: Pseudomonas aeruginosa SANK 70970; experiment: MIC by agar dilution method, Mueller-Hinton agar; type: cell-based
Protocol: as §1

[9] = system: Pseudomonas aeruginosa SANK 75175; experiment: MIC by agar dilution method, Mueller-Hinton agar; type: cell-based
Protocol: as §1

[10] = system: Pseudomonas aeruginosa SANK 75775; experiment: MIC by agar dilution method, Mueller-Hinton agar; type: cell-based
Protocol: as §1

[11] = system: Serratia marcescens SANK 73060; experiment: MIC by agar dilution method, Mueller-Hinton agar; type: cell-based
Protocol: as §1

[12] = system: Staphylococcus aureus FDA 209P JC-1; experiment: MIC by agar dilution method, Mueller-Hinton agar; type: cell-based
Protocol: as §1

[13] = Toxicity in mice after intravenous administration; type: in vivo; details: intravenously 400 mg/kg
[14] = system: Pseudomonas aeruginosa SANK 70579; experiment: Growth inhibition test of derivatives; type: cell-based

CSCC[C@H](NC(=O)NC(Cc1cccc(O)c1)C(=O)O)C(=O)N[C@@H](C(=O)NC=C1CC(O)C(n2ccc(=O)[nH]c2=O)O1)C(C)N(C)C(=O)[C@@H](N)Cc1cccc(O)c1 (some centres unmarked) [Mureidomycin A, reference compound]
Solubility in acetone [1]: slightly soluble
Solubility in benzene [1]: insoluble
Solubility in chloroform [1]: insoluble
Solubility in ethyl acetate [1]: insoluble
Solubility in methanol [1]: Soluble
Solubility in water [1]: Soluble

CSCC[C@@H](NC(=O)N[C@H](Cc1cccc(O)c1)C(=O)O)C(=O)N[C@H](C(=O)N/C=C1/C[C@H](O)[C@@H](n2ccc(=O)[nH]c2=O)O1)[C@H](C)N(C)C(=O)[C@H]1Cc2cccc(O)c2CN1 [Mureidomycin E]
MIC [2]: > 200 µg/mL
MIC [3]: > 200 µg/mL
MIC [4]: 25 µg/mL (≈ 29.3 µM)
MIC [5]: < 0.4 µg/mL
MIC [6]: 25 µg/mL (≈ 29.3 µM)
MIC [7]: < 0.4 µg/mL
MIC [8]: 25 µg/mL (≈ 29.3 µM)
MIC [9]: 25 µg/mL (≈ 29.3 µM)
MIC [10]: 6.25 µg/mL (≈ 7.33 µM)
MIC [11]: > 200 µg/mL
MIC [12]: > 200 µg/mL
toxicity [13]: No toxicity was observed
Solubility in acetone [1]: slightly soluble
Solubility in benzene [1]: insoluble
Solubility in chloroform [1]: insoluble
Solubility in ethyl acetate [1]: insoluble
Solubility in methanol [1]: Soluble
Solubility in water [1]: Soluble

CSCC[C@@H](NC(=O)N[C@@H](Cc1cccc(O)c1)C(=O)O)C(=O)N[C@@H](C(=O)N/C=C1/C[C@@H](O)[C@H](n2ccc(=O)[nH]c2=O)O1)[C@@H](C)N(C)C(=O)[C@H]1Cc2cc(O)ccc2CN1 [Mureidomycin F]
MIC [2]: > 200 µg/mL
MIC [3]: > 200 µg/mL
MIC [4]: 3.13 µg/mL (≈ 3.67 µM)
MIC [5]: 0.8 µg/mL (≈ 0.938 µM)
MIC [6]: 3.13 µg/mL (≈ 3.67 µM)
MIC [7]: 1.56 µg/mL (≈ 1.83 µM)
MIC [8]: 100 µg/mL (≈ 117 µM)
MIC [9]: 50 µg/mL (≈ 58.6 µM)
MIC [10]: 25 µg/mL (≈ 29.3 µM)
MIC [11]: > 200 µg/mL
MIC [12]: > 200 µg/mL
toxicity [13]: No toxicity was observed
Solubility in acetone [1]: slightly soluble
Solubility in benzene [1]: insoluble
Solubility in chloroform [1]: insoluble
Solubility in ethyl acetate [1]: insoluble
Solubility in methanol [1]: Soluble
Solubility in water [1]: Soluble

methylmureidomycin E
inhibition of growth [14]: inhibit the growth
Solubility in water [1]: soluble

methylmureidomycin F
inhibition of growth [14]: inhibit the growth
Solubility in water [1]: soluble

phenylmureidomycin E
inhibition of growth [14]: inhibit the growth
Solubility in water [1]: soluble

phenylmureidomycin F
inhibition of growth [14]: inhibit the growth
Solubility in water [1]: soluble

— US5041423A, “Antibiotics of the mureidomycin group, their preparation, and their therapeutic use” (Sankyo Company, Limited, priority 1987, dated 1991)
